Assay results from ChEMBL document CHEMBL1130799, “Stability of acetal and non acetal-type analogs of artemisinin in simulated stomach acid” (Bioorg Med Chem Lett, 1998).
In brackets after ≈: the same amount, converted by molar mass.

Assays:
[1] = Half life was determined; type: ADME; conditions: rat
Plasmodium falciparum = assay: In vitro antimalarial activity against Plasmodium falciparum; type: functional, organism-based

SMILES | half-life [1] [days] | IC50 (Plasmodium falciparum) [ng/mL]
C[C@H]1[C@@H](O)O[C@@H]2O[C@@]3(C)CC[C@H]4[C@H](C)CC[C@@H]1[C@@]24OO3 [ARTENIMOL] | 0.716 | 
CCCC[C@H]1O[C@@H]2O[C@]3(C)CC[C@H]4[C@H](C)CC[C@@H]([C@H]1C)[C@@]24OO3 | 6.88 | 1.15 (≈ 3.54 nM)
C[C@@H]1CC[C@H]2[C@@H](C)C(=O)O[C@@H]3O[C@@]4(C)CC[C@@H]1[C@]32OO4 [ARTEMISININ] | 0.979 | 
C[C@H]1[C@@H](Cc2ccccc2)O[C@@H]2O[C@]3(C)CCC4[C@H](C)CC[C@@H]1[C@]42OO3 (stereo partly specified) | 11.9 | < 0.17
C[C@H]1[C@@H](CCCC(=O)O)O[C@@H]2O[C@]3(C)CCC4[C@H](C)CC[C@@H]1[C@]42OO3 (stereo partly specified) | 16.1 | 1.3 (≈ 3.67 nM)
C[C@H]1[C@@H](OCc2ccc(C(=O)O)cc2)O[C@@H]2OC3(C)CCC4[C@H](C)CC[C@@H]1[C@]42OO3 (single isomer, unassigned) | 0.546 | 1.38 (≈ 3.3 nM)
CCO[C@H]1O[C@@H]2OC3(C)CCC4[C@H](C)CC[C@@H]([C@H]1C)[C@]42OO3 (single isomer, unassigned) | 0.458 | 0.16 (≈ 0.512 nM)
C[C@@H]1CC[C@H]2[C@@H](C)CO[C@@H]3O[C@]4(C)CCC1[C@]32OO4 (stereo partly specified) | 8.89 | 0.15 (≈ 0.559 nM)
C[C@H]1[C@@H](CCCCC(=O)O)O[C@@H]2O[C@]3(C)CCC4[C@H](C)CC[C@@H]1[C@]42OO3 (stereo partly specified) | 15.6 | 1.28 (≈ 3.47 nM)
